Reference: PMC12363342, “Investigating the N-terminal linker histone H1 subtypes as substrates for JmjC lysine demethylases” (RSC Chemical Biology, 2025)
Blank lines part the entries; values can stand above or below the substance they belong to. Square brackets hold non-standard residues; d marks the D form. Ends that are not written are not given here. Lys(Me3) = C[N+](C)(C)CCCC[C@H](N)C(=O)O; Lys(Me2) = CN(C)CCCC[C@H](N)C(=O)O

Assays:
[1] = test system: KDM6B; assay: LC-MS demethylation activity assay, KDM6B; format: biochemical, human; settings: 2 μM KDM, 10 μM H1/H3 peptide, 10 μM FAS, 100 μM LAA, 20 μM 2OG, 50 mM HEPES pH 7.5, 2 h, room temperature; for KDM6B demethylation activity, D: D (di-) initial methylation state
Experimental: (§1) The substrate specificity of JmjC KDMs for H1 was examined using liquid chromatography coupled to mass spectrometry (LC-MS) assays. The H1 peptides (10 μM) were incubated with the recombinant KDM (2 μM) in HEPES buffer at pH 7.5 at room temperature for 2 h, in the presence of ferrous(II) ammonium sulfate (FAS, 10 μM), sodium ascorbate (LAA, 100 μM) and 2OG (20 μM), and then quenched with formic acid. N^ε-Methylated H3K9 and H3K36 peptides were used as positive controls (Fig. 3–5 and Fig. S2–S6).[26]
(§2) The catalytic domains of the JmjC KDMs used were recombinantly produced as reported in either Escherichia coli (KDM4AM1-L359,[38] KDM4DM1-L359,[39] KDM4EM1-R336,[30] KDM6BD1141–E1590[40] and KDM3CL2157-L2500) or Sf9 cells (KDM3AT515–S1317, KDM3B882–1761, and KDM5DM1-D775) as N-terminally His6-tagged proteins. […] To produce proteins, DNA sequences encoding for KDM3A, KDM3B and KDM5D were inserted into the pFB-LIC vector, containing a TEV-protease cleavable N-terminal 6x-histidine tag via ligation independent cloning (LIC). The resultant plasmids were transformed into baculovirus and Sf9 cells ([…]) which were infected with the virus stock. The cells were grown at 27 °C and 90 rpm for 70 h. Cells were then harvested and suspended in 100 mL of lysis buffer (50 mM HEPES-NaOH, pH 7.4, 500 mM NaCl, 20 mM imidazole, 0.5 mM Tris (2-carboxyethyl)phosphine (TCEP), 5% (v/v) glycerol). […] The supernatant was loaded onto a Ni-NTA gravity column, washed with 10 column volume of lysis buffer and eluted using the elution buffer (50 mM HEPES-NaOH, pH 7.4, 500 mM NaCl, 300 mM imidazole, 0.5 mM TCEP, 5% (v/v) glycerol). The eluted protein was further purified using S200 gel filtration column chromatography (50 mM HEPES-NaOH, pH 7.4, 150 mM NaCl, 0.5 mM TCEP and 5% glycerol). Protein purity was analysed by SDS-PAGE and further confirmed by mass spectrometry. Selected fractions were pooled, concentrated and stored at −80 °C.
(§3) All reagents were purchased from Sigma Aldrich and were of the highest grade available. Ferrous(II) ammonium sulfate (FAS) solutions were prepared freshly by dissolving FAS to 400 mM in 20 mM HCl with subsequent dilution to 1 mM using deionized water. Fresh 2OG (10 mM) and LAA (50 mM) solutions were prepared by dissolving the solids in deionised water. All enzyme reactions were performed in 384-well plates (Greiner Bio-One) with a final reaction volume of 50 μL. Substrate mixtures contained 50 mM HEPES pH 7.5, LAA (100 μM), FAS (10 μM), 2OG (20 μM) and an H1 isoform peptide (10 μM). Reactions were initiated by the addition of enzyme to a final concentration of 2.0 μM. After 2 h, the reactions were stopped by the addition of 5 μL of 10% (v/v) LC-MS grade formic acid (Fisher Scientific) to a final concentration of 1% (v/v). Product analyses were performed by liquid chromatography-mass spectrometry (LC-MS) using an Agilent 1290 infinity II LC system equipped with an Agilent 1290 multisampler and an Agilent 1290 high speed pump and connected to an Agilent 6550 accurate mass iFunnel quadrupole time of flight (Q-TOF) mass spectrometer. 1 μL of the reaction mixture was injected onto a 1.8 μm × 2.1 × 50 mm ZORBAX RRHD Eclipse Plus C18 column (Agilent). Solvent A consisted of HPLC grade water containing 0.1% (v/v) formic acid and solvent B consisted of MeCN containing 0.1% (v/v) formic acid. Peptides were separated using a stepwise gradient (0 min – 95% solvent A, 1.0 min – 80% solvent A, 3.0 min – 45% solvent A, 4.0 min – 45% solvent A, 5.0 min – 0% solvent A, 6.0 min – 0% solvent A, 7.0 min – 95% solvent A). This was followed by a 3 min post-run with 95% solvent A to re-equilibrate the column. All flow rates were 0.2 mL min^−1. A blank injection of HPLC grade water was carried out between each sample injection.

[2] = target: T1, KDM4E (Homo sapiens, UniProt B2RXH2); assay: LC-MS demethylation activity assay, KDM4E; format: biochemical; settings: 10 μM FAS, 100 μM LAA, 20 μM 2OG, room temperature; for KDM4E demethylation activity, D: D (di-) initial methylation state
T1 construct: KDM4DM1-L359,[39]; KDM4EM1-R336,[30]; His6 (N); made in house; host or cells: Escherichia coli
T1 sequence (B2RXH2 1-336): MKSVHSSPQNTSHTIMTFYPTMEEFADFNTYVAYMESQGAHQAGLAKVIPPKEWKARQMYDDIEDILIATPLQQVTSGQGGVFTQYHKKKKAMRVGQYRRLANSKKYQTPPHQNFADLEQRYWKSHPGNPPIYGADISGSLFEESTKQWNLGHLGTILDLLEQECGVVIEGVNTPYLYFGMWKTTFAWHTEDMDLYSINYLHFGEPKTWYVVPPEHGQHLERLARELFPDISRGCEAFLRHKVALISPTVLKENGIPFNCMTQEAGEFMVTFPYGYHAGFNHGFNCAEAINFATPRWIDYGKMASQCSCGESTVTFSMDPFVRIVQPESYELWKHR
Experimental: as §1, §2, §3

[3] = test system: KDM4A; assay: LC-MS demethylation activity assay, KDM4A; format: biochemical, human; settings: 10 μM FAS, 100 μM LAA, 20 μM 2OG, room temperature; for KDM4A demethylation activity, D: D (di-) initial methylation state
Experimental: as §1, §2, §3

[4] = test system: KDM3C; assay: LC-MS demethylation activity assay, KDM3C; format: biochemical, human; settings: 2 μM KDM, 10 μM H1/H3 peptide, 10 μM FAS, 100 μM LAA, 20 μM 2OG, 50 mM HEPES pH 7.5, 2 h, room temperature; for KDM3C demethylation activity, D: D (di-) initial methylation state
Experimental: as §1, §2, §3

[5] = test system: KDM5D; assay: LC-MS demethylation activity assay, KDM5D; format: biochemical, human; settings: 2 μM KDM, 10 μM H1/H3 peptide, 10 μM FAS, 100 μM LAA, 20 μM 2OG, 50 mM HEPES pH 7.5, 2 h, room temperature; for KDM5D demethylation activity, D: D (di-) initial methylation state
Experimental: as §1, §2, §3

[6] = target: T2, KDM4D (Homo sapiens, UniProt Q6B0I6); assay: LC-MS demethylation activity assay, KDM4D; format: biochemical; settings: room temperature; for KDM4D demethylation activity, D: D (di-) initial methylation state
T2 construct: KDM4AM1-L359,[38]; KDM4DM1-L359,[39]; KDM4EM1-R336,[30]; His6 (N); made in house; host or cells: Escherichia coli
T2 sequence (Q6B0I6 1-359): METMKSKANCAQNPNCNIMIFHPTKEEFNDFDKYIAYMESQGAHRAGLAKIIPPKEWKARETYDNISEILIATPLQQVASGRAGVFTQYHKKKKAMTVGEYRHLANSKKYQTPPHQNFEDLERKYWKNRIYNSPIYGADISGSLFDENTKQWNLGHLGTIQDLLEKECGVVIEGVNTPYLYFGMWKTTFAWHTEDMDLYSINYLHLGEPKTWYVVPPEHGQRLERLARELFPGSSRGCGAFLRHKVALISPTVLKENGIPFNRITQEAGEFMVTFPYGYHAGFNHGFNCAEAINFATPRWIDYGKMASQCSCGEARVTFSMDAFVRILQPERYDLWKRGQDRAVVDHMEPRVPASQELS
Experimental: as §1, §2, §3

[7] = test system: KDM3A; assay: LC-MS demethylation activity assay, KDM3A; format: biochemical, human; settings: 2 μM KDM, 10 μM H1/H3 peptide, 10 μM FAS, 100 μM LAA, 20 μM 2OG, 50 mM HEPES pH 7.5, 2 h, room temperature; for KDM3A demethylation activity, D: D (di-) initial methylation state
Experimental: as §1, §2, §3

[8] = test system: KDM3B; assay: LC-MS demethylation activity assay, KDM3B; format: biochemical, human; settings: 2 μM KDM, 10 μM H1/H3 peptide, 10 μM FAS, 100 μM LAA, 20 μM 2OG, 50 mM HEPES pH 7.5, 2 h, room temperature; for KDM3B demethylation activity, D: D (di-) initial methylation state
Experimental: as §1, §2, §3

[9] = 2 μM KDM, 10 μM H1/H3 peptide, 50 mM HEPES pH 7.5, 2 h
[10] = 2 μM KDM, 10 μM H1/H3 peptide, 10 μM FAS, 100 μM LAA, 20 μM 2OG, 50 mM HEPES pH 7.5, 2 h
[11] = M (mono-) initial methylation state
[12] = 2 μM KDM, 10 μM H1/H3 peptide, 50 mM HEPES pH 7.5, 2 h, M (mono-) initial methylation state
[13] = T (tri-) initial methylation state
[14] = 2 μM KDM, 10 μM H1/H3 peptide, 50 mM HEPES pH 7.5, 2 h, T (tri-) initial methylation state
[15] = 2 μM KDM4D, 10 μM peptide, standard conditions, 2 h

substrate conversion (demethylation) by KDM4E ([2]; 2 μM KDM4E, 10 μM peptide, HEPES pH 7.5, 2 h): > 40%
Substance: KKKATK[Lys(Me2)]AAGAGAAK [Peptide H1.5K26me2, 15-mer linker histone H1.5 residues 20-34 peptide, di-methylated K26]
KDM6B demethylation activity, D [1]: ● [red]
KDM4E demethylation activity, D [2, 9]: ● [green] (green dots indicate good demethylation (>50% conversion))
KDM4A demethylation activity, D [3, 9]: ● [red]
KDM3C demethylation activity, D [4]: ● [red]
KDM5D demethylation activity, D [5]: ● [red]
KDM4D demethylation activity, D [6, 10]: ● [black] (black dots indicate low-level demethylation (<10% conversion))
KDM3A demethylation activity, D [7]: ● [red]
KDM3B demethylation activity, D [8]: ● [red]

KDM4E demethylation activity, M [2, 12]: ● [red]
KDM4D demethylation activity, M ([6]; 2 μM KDM, 10 μM H1/H3 peptide, 10 μM FAS, 100 μM LAA, 20 μM 2OG, 50 mM HEPES pH 7.5, 2 h, M (mono-) initial methylation state): ● [red]
Substance: KKKATKmeKAAGAGAAK [Peptide H1.5K25me, 15-mer linker histone H1.5 residues 20-34 peptide, mono-methylated K25]
KDM6B demethylation activity, M [1, 11]: ● [red]
KDM4A demethylation activity, M [3, 12]: ● [red]
KDM3C demethylation activity, M [4, 11]: ● [red]
KDM5D demethylation activity, M [5, 11]: ● [red]
KDM3A demethylation activity, M [7, 11]: ● [red]
KDM3B demethylation activity, M [8, 11]: ● [red]

KDM4E demethylation activity, D [2, 9]: ● [red]
KDM4D demethylation activity, D [6, 10]: ● [red]
Substance: KKKAT[Lys(Me2)]KAAGAGAAK [Peptide H1.5K25me2, 15-mer linker histone H1.5 residues 20-34 peptide, di-methylated K25]
KDM6B demethylation activity, D [1]: ● [red]
KDM4A demethylation activity, D [3, 9]: ● [red]
KDM3C demethylation activity, D [4]: ● [red]
KDM5D demethylation activity, D [5]: ● [red]
KDM3A demethylation activity, D [7]: ● [red]
KDM3B demethylation activity, D [8]: ● [red]

KDM4E demethylation activity, T [2, 14]: ● [red]
KDM4D demethylation activity, in words [6, 15]: No activity was observed
di-methylated product formed by KDM4D [6, 15]: < 5%
KDM4D demethylation activity, T ([6]; 2 μM KDM, 10 μM H1/H3 peptide, 10 μM FAS, 100 μM LAA, 20 μM 2OG, 50 mM HEPES pH 7.5, 2 h, T (tri-) initial methylation state): ● [red]
Substance: KKKAT[Lys(Me3)]KAAGAGAAK [Peptide H1.5K25me3, 15-mer linker histone H1.5 residues 20-34 peptide, tri-methylated K25]
KDM6B demethylation activity, T [1, 13]: ● [red]
substrate conversion (demethylation) by KDM4A ([3]; 2 μM KDM4A, 10 μM peptide, HEPES pH 7.5, 2 h): < 10%
KDM4A demethylation activity, T [3, 14]: ● [yellow] (yellow dots indicate moderate demethylation (<50% conversion))
KDM3C demethylation activity, T [4, 13]: ● [red]
KDM5D demethylation activity, T [5, 13]: ● [red]
KDM3A demethylation activity, T [7, 13]: ● [red]
KDM3B demethylation activity, T [8, 13]: ● [red]
